Measured values published in patent publication US12636366B2, “Ruthenium (II) complexes and conjugates thereof for use as photosensitizer agent in photodynamic therapy” (Paris Sciences et Lettres, priority 2019, dated 2026).
Blank lines part the entries; values can stand above or below the compound they belong to.

Key:
Cys-34 residue of HSA = Cys-34 residue of HSA (Homo sapiens, UniProt P02768)
Method: UV-visible (UV-Vis) spectrophotometry was monitored on an Agilent Cary 8454 diode array spectrophotometer in the wavelength range between 190 and 1100 nm.
Interaction of complex 12 at the Cys-34 residue of HSA was investigated spectrophotometrically via the dithiodipyridine (DTDP) method described previously (Pichler et al., 2013). […] A first series of UV-Vis spectra (a) were recorded before addition of 110 μM DTDP and a second series of UV-Vis spectra (b) were recorded after addition of 110 μM DTDP and after another 40 min waiting. […] Blank experiment with compound 13 was carried out as well as a control experiment. The effect of protein unfolding on the thiol binding of complex 12 was studied by the addition of 0.5% (m/m) SDS to the protein prior to its reaction with the complex. This experiment allows to determine the amount of free Cys-34 residue of HSA as a function of the added equivalent of the complexes.

[1] = cited from earlier work

Cys-34 residue of HSA, sequence (P02768 25-609): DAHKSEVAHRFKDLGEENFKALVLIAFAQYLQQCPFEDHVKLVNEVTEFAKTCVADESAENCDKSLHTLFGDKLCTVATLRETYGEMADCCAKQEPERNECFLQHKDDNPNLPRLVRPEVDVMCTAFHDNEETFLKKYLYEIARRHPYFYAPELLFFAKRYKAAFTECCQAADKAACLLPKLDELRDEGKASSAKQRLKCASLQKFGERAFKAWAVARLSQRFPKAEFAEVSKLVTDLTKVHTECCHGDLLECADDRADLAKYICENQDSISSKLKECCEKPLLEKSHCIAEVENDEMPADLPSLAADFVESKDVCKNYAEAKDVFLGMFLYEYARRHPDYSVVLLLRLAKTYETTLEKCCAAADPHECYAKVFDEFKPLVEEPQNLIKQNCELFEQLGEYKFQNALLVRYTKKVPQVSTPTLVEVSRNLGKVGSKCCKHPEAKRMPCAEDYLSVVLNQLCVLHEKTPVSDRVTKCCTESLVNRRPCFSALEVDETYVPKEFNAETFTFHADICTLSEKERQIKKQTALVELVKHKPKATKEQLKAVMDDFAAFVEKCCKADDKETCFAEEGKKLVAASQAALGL

Compound: Cc1ccnc(-c2cc(C)ccn2)c1.[Cl-].[Cl-].[Ru+2].c1ccc(-c2ccnc3c2ccc2c(-c4ccccc4)ccnc23)cc1.c1ccc(-c2ccnc3c2ccc2c(-c4ccccc4)ccnc23)cc1 [Compound 13, (4,4′-Dimethyl-2,2′-bipyridine)bis(4,7-diphenyl-1,10-phenanthroline)ruthenium(II) dichlorine]
Interaction with Cys-34 thiol group (free thiol content) of native HSA (Cys-34 residue of HSA; 133 μM HSA, 0-120 μM complex, 3 h or 30 min, pH=7.00 (PBS)): affects barely the quantity of free thiol groups

Compound: [Cl-].[Cl-].[Ru+2].c1ccc(-c2ccccn2)nc1.c1ccc(-c2ccccn2)nc1.c1ccc(-c2ccccn2)nc1 [[Ru(bipy)3]Cl2]
Φ(1O2) of reference in D2O / water ([1]; solution in D2O / water): 0.22

Compound: O=C1C=Cc2cccc3cccc1c23 [phenalenone]
Φ(1O2) of reference in CH3CN ([1]; solution in CH3CN): 0.95

Interaction with Cys-34 thiol group of unfolded HSA (Cys-34 residue of HSA; 0.5% SDS as denaturing agent, 0.5 h incubation): nearly quantitative interaction
Effect of incubation time on Cys-34 interaction (Cys-34 residue of HSA; 3 h versus 30 min incubation with HSA): did not result in remarkable differences
Compound: [Ru(bphen)2(Me-maleimidemethyl)](Cl)2 [Compound 12]
